Measurements as given in article PMC11062894, “Protein-based bandpass filters for controlling cellular signaling with chemical inputs” (Nature Chemical Biology, 2023).
Values joined by “and” are separate entries in the source; they are usually repeats but may differ in a detail not shown here. Equal values may be shown once.

Experiments:
[1] = target: GEMS with the dual-drug-controlled (venetoclax, A-1155463) switch (BclXL and Bcl2–LD3) in HEK293T cells (Homo sapiens, UniProt P10415); assay: GEMS SEAP reporter assay, dual-drug-controlled (venetoclax, A-1155463) switch; type: cell-based
GEMS with the dual-drug-controlled (venetoclax, A-1155463) switch (BclXL and Bcl2–LD3) in HEK293T cells, sequence (P10415 whole entry): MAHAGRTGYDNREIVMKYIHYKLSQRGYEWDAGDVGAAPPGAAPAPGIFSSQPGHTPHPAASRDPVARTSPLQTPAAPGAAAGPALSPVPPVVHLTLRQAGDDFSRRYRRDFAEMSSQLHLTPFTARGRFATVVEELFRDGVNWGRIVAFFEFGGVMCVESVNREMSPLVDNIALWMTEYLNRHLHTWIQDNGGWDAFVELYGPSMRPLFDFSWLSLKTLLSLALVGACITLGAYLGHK
GEMS with the dual-drug-controlled (venetoclax, A-1155463) switch (BclXL and Bcl2–LD3) in HEK293T cells, sequence (Q07817 whole entry, further chain): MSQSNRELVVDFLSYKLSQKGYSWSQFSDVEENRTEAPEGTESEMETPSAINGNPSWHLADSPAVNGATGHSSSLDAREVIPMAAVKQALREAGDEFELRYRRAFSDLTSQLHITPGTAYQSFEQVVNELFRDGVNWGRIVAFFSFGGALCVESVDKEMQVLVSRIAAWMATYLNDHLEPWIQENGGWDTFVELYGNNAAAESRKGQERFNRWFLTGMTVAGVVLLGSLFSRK
Procedure: (§1) HEK293T cells were seeded in a 96-well plate 24 h before transfection. The transfection mix in each well consisted of 3 ng of constitutive human CMV promoter driven mammalian STAT3 expression vector (PhCMV-STAT3-pA), 30 ng of STAT3-induced reporter expression (OStat3-PhCMVmin-SEAP-pA) and 50 ng of expression vectors for each GEMS receptor chain (PSV40-IgK-(drughigh receptor)-EpoRm-IL-6RBm-pA and PSV40-IgK-(druglow receptor-GGGGSX3-LD3)-EpoRm-IL-6RBm-pA). For the specific drughigh receptor and druglow receptor used in the different cellular assays, they are indicated as wild type or with mutations. Then, plasmid DNA was mixed with 50 μl opti-MEM (Thermo Fisher) and 600 ng of polyethyleneimine (Polysciences, catalog no. 24765-1). For drug treatment experiments, drugs were added 12 h post-transfection and incubated with cells for 24 h before the SEAP reporter detection assay.
(§2) SEAP activity (U l^−1) in cell culture supernatants was quantified by kinetic measurements at 405 nm (1 minute per measurement for 30 cycles) of absorbance increase due to phosphatase-mediated hydrolysis of para-nitrophenyl phosphate (pNPP).
(§3) Binding affinities of SPR drug competition assays were calculated using three-parameter nonlinear regression in GraphPad Prism (v.8.3.0). Representative data of cell assays are presented as individual values and mean values (bars). n = 3 refers to biological replicates. All IC50 or EC50 values of cell assays reported were calculated using four-parameter nonlinear regression ± s.d. Bandpass features of cutoff concentrations and Bandwidth90% were estimated based on the curve fitted using bell-shaped curve nonlinear regression in GraphPad Prism (v.8.3.0). […]

Bcl2–LD3 interaction = Bcl2–LD3 interaction (Homo sapiens, UniProt P10415); assay: SPR drug competition assay, Bcl2–LD3; type: binding; settings: Bcl2, Supp Fig 2d
Bcl2–LD3 interaction, sequence (P10415 1-207 limits assumed): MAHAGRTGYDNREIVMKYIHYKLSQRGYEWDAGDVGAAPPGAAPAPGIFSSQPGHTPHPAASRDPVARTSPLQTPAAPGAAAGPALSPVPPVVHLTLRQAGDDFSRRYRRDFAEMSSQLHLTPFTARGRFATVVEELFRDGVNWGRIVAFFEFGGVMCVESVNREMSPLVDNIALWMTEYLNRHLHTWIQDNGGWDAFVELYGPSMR
Procedure: Drug IC50 values for disrupting heterodimers were measured on a Biacore 8K device. A 5 µM portion of analyte was mixed with 10 µM of BclXL or Bcl2 inhibitors according to the analyte. The mixtures of analyte and drug were injected onto the LD3 immobilized channel.
as §3
This assay is designed to test if the drug of interest can specifically disrupt the
interaction between LD3 and BclXL/Bcl2. The drug-receptors (Bcl2, BclXL) are immobilized on the
different channels of the sensor chip, then the binding sites are saturated with LD3. […]

Bcl2 = settings: cited from earlier work
BclXL–LD3 interaction = BclXL–LD3 interaction (Homo sapiens, UniProt Q07817); assay: SPR drug competition assay, BclXL–LD3; type: binding; settings: for Normalization of Response units / Response units: BclXL, Supp Fig 2d
BclXL–LD3 interaction, sequence (Q07817 1-209 limits assumed): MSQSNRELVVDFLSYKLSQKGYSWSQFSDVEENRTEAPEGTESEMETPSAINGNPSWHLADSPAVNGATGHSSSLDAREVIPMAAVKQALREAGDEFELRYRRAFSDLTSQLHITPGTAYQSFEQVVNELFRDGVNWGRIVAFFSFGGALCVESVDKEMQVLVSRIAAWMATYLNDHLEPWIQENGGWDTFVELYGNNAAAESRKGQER

[2] = target: GEMS with the dual-drug-controlled (A-1155463, venetoclax) switch (Bcl2 and BclXL–LD3) in HEK293T cells (Homo sapiens, UniProt P10415); assay: GEMS SEAP reporter assay, dual-drug-controlled (A-1155463, venetoclax) switch; type: cell-based; settings: for SEAP (U/L): Figure 2c, OFF-phase
GEMS with the dual-drug-controlled (A-1155463, venetoclax) switch (Bcl2 and BclXL–LD3) in HEK293T cells, sequence (Q07817 whole entry): as the sequence (Q07817 whole entry, further chain) above
GEMS with the dual-drug-controlled (A-1155463, venetoclax) switch (Bcl2 and BclXL–LD3) in HEK293T cells, sequence (P10415 whole entry): as the sequence (P10415 whole entry) above
From the text: In the first step, we sought to construct a dual-drug-controlled switch to test whether the ON and OFF switching processes can be combined in our receptor architecture. We used Bcl2 and BclXL as the orthogonal drug receptors, which interact with the LD3 protein and respond to their own specific inhibitors. In such a setting, the dual-drug-controlled switch will turn ON in response to one drug and OFF in response to the other, thus mimicking bandpass filtering behavior (Supplementary Fig. 1d). […] To test the switch behavior, we employed the generalizable extracellular molecule sensor (GEMS) platform, which senses extracellular molecules and thus regulates cell surface signaling pathways (Fig. 2a). This receptor platform is based on a mutated EpoR extracellular and transmembrane domain fused to an IL-6RB intracellular domain. Dimerization of EpoR extracellular domains is controlled by N-terminally fused inducible dimerization domains, which drive IL-6RB activation and STAT3 signaling. The Bcl2 and BclXL–LD3 complexes were fused to the extracellular EpoR domains. […] The dimerization of Bcl2 and LD3 causes EpoR extracellular domain dimerization and triggers JAK/STAT3 signaling. Active STAT3 drives the expression of a reporter protein (secreted alkaline phosphatase (SEAP)) controlled by a STAT3-dependent promoter.
as §1, §2
Binding affinities of SPR drug competition assays were calculated using three-parameter nonlinear regression in GraphPad Prism (v.8.3.0). Representative data of cell assays are presented as individual values and mean values (bars). n = 3 refers to biological replicates. All IC50 or EC50 values of cell assays reported were calculated using four-parameter nonlinear regression ± s.d. Bandpass features of cutoff concentrations and Bandwidth90% were estimated based on the curve fitted using bell-shaped curve nonlinear regression in GraphPad Prism (v.8.3.0).

CC1(C)CCC(CN2CCN(c3ccc(C(=O)NS(=O)(=O)c4ccc(NCC5CCOCC5)c([N+](=O)[O-])c4)c(Oc4cnc5[nH]ccc5c4)c3)CC2)=C(c2ccc(Cl)cc2)C1 [Venetoclax]
increase in the ON phase [1]: close to tenfold
Normalization of Response units (Bcl2–LD3 interaction; V 0.01): 100.745
Response units (Bcl2–LD3 interaction; V 0.01): 7.1398
Normalization of Response units (Bcl2–LD3 interaction; V 0.1): 100.312
Response units (Bcl2–LD3 interaction; V 0.1): 7.1091
Normalization of Response units (Bcl2–LD3 interaction; V 1): 96.9409
Response units (Bcl2–LD3 interaction; V 1): 6.8702
Normalization of Response units (Bcl2–LD3 interaction; V 10): 93.6659
Response units (Bcl2–LD3 interaction; V 10): 6.6381
Normalization of Response units (Bcl2–LD3 interaction; V 100): 74.5943
Response units (Bcl2–LD3 interaction; V 100): 5.2865
Normalization of Response units (Bcl2–LD3 interaction; V 1000): 57.566
Response units (Bcl2–LD3 interaction; V 1000): 4.0797
Normalization of Response units (Bcl2–LD3 interaction; V 10000): 38.8006
Response units (Bcl2–LD3 interaction; V 10000): 2.7498
affinity for Bcl2 stronger than for BclXL (Bcl2): 500 fold
Normalization of Response units (BclXL–LD3 interaction; V 0.01): 100.685
Response units (BclXL–LD3 interaction; V 0.01): 94.0092
Normalization of Response units (BclXL–LD3 interaction; V 0.1): 99.7556
Response units (BclXL–LD3 interaction; V 0.1): 93.1418
Normalization of Response units (BclXL–LD3 interaction; V 1): 98.8448
Response units (BclXL–LD3 interaction; V 1): 92.2914
Normalization of Response units (BclXL–LD3 interaction; V 10): 97.5083
Response units (BclXL–LD3 interaction; V 10): 91.0435
Normalization of Response units (BclXL–LD3 interaction; V 100): 89.9423
Response units (BclXL–LD3 interaction; V 100): 83.9791
Normalization of Response units (BclXL–LD3 interaction; V 1000): 81.529
Response units (BclXL–LD3 interaction; V 1000): 76.1236
Normalization of Response units (BclXL–LD3 interaction; V 10000): 74.8321
Response units (BclXL–LD3 interaction; V 10000): 69.8707
effect on the BclXL–LD3 interaction (BclXL–LD3 interaction; SPR drug competition): not affecting
SEAP (U/L) ([2]; Independent repeat, Venetoclax 0.001 nM): 294.62 U/L and 313.4 U/L and 319.588 U/L
SEAP (U/L) ([2]; Independent repeat, Venetoclax 0.01 nM): 267.156 U/L and 307.848 U/L and 300.966 U/L
SEAP (U/L) ([2]; Independent repeat, Venetoclax 0.1 nM): 225.991 U/L and 258.444 U/L and 342.296 U/L
SEAP (U/L) ([2]; Independent repeat, Venetoclax 1 nM): 259.474 U/L and 200.825 U/L and 300.367 U/L
SEAP (U/L) ([2]; Independent repeat, Venetoclax 10 nM): 304.021 U/L and 256.34 U/L and 345.499 U/L
SEAP (U/L) ([2]; Independent repeat, Venetoclax 31.6 nM): 220.194 U/L and 208.431 U/L and 268.11 U/L
SEAP (U/L) ([2]; Independent repeat, Venetoclax 100 nM): 193.21 U/L and 194.937 U/L and 240.35 U/L
SEAP (U/L) ([2]; Independent repeat, Venetoclax 316 nM): 87.2098 U/L and 106.113 U/L and 133.634 U/L
SEAP (U/L) ([2]; Independent repeat, Venetoclax 1000 nM): 44.9721 U/L and 57.2365 U/L and 51.9722 U/L
SEAP (U/L) ([2]; Representative, Venetoclax 0.001 nM): 75.3746 U/L and 89.0712 U/L and 99.0049 U/L
SEAP (U/L) ([2]; Representative, Venetoclax 0.01 nM): 85.1657 U/L and 70.1122 U/L and 89.4923 U/L
SEAP (U/L) ([2]; Representative, Venetoclax 0.1 nM): 81.9771 U/L and 80.9297 U/L and 78.2538 U/L
SEAP (U/L) ([2]; Representative, Venetoclax 1 nM): 69.1909 U/L and 65.9454 U/L and 68.5076 U/L
SEAP (U/L) ([2]; Representative, Venetoclax 10 nM): 45.3899 U/L and 45.448 U/L and 63.5072 U/L
SEAP (U/L) ([2]; Representative, Venetoclax 31.6 nM): 23.8212 U/L and 28.0484 U/L and 21.6764 U/L
SEAP (U/L) ([2]; Representative, Venetoclax 100 nM): 11.359 U/L and 10.3713 U/L and 12.1034 U/L
SEAP (U/L) ([2]; Representative, Venetoclax 316 nM): 9.4797 U/L and 7.067 U/L and 8.943 U/L
SEAP (U/L) ([2]; Representative, Venetoclax 1000 nM): 8.365 U/L and 6.996 U/L and 8.215 U/L
shut-down of reporter gene expression ([2]; adding 1 µM venetoclax to 100 nM A-1155463): effectively shut down
